Data reported in PubChem BioAssay (NCI).
“And” between values parts separate entries of the source, which are not always exact repeats. Equal entries are not always repeated.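 Exposure lasted 48 hours, with cells grown in 96-well plates and compounds tested at five concentrations. Here, GI50 denotes the concentration required for 50% inhibition of growth. At the TGI there is no net growth.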

Key:
Experiment in all cases: DTP human tumour cell line panel, 48 h
A549 NSCLC = test system: A549 NSCLC
ACHN renal = test system: ACHN renal
HCT-116 colon = test system: HCT-116 colon
HCT-15 colon = test system: HCT-15 colon
HT29 colon = test system: HT29 colon
KM12 colon = test system: KM12 colon
NCI-H522 lung = test system: NCI-H522 lung
OVCAR-5 ovarian = test system: OVCAR-5 ovarian
SK-MEL-5 melanoma = test system: SK-MEL-5 melanoma
UO-31 renal = test system: UO-31 renal

Row | SMILES | GI50 (A549 NSCLC) | TGI (A549 NSCLC) | GI50 (ACHN renal) | TGI (ACHN renal) | GI50 (HCT-116 colon) | TGI (HCT-116 colon) | GI50 (HCT-15 colon) | TGI (HCT-15 colon) | GI50 (HT29 colon) | TGI (HT29 colon) | GI50 (KM12 colon) | TGI (KM12 colon) | GI50 (NCI-H522 lung) | TGI (NCI-H522 lung) | GI50 (OVCAR-5 ovarian) | TGI (OVCAR-5 ovarian) | GI50 (SK-MEL-5 melanoma) | TGI (SK-MEL-5 melanoma) | GI50 (UO-31 renal) | TGI (UO-31 renal)
1 | C[C@@H]1CN(CC(=O)N2CC(C)(C)c3nc(CO)c(Cc4ccc(F)cc4)cc32)[C@@H](CN2CCOC[C@H]2C)CN1 | > 100 µM | > 100 µM | > 100 µM | > 100 µM | 36.9 µM | > 100 µM | 31.4 µM | > 100 µM | 22.2 µM | 49.2 µM | 46.2 µM | > 100 µM | 21.8 µM | 71.6 µM | > 100 µM | > 100 µM | 15 µM | 28.3 µM | > 100 µM | > 100 µM
2 | COc1ccc(-c2cn(-c3ccccc3)c(-c3ccccc3)n2)cc1OC | 3.71 µM | 16 µM | 9.55 µM | 21.4 µM | 2.84 µM | 11.9 µM | 2.62 µM | 11.2 µM | 4.5 µM | > 100 µM | 2.4 µM | 6.41 µM | 6.63 µM | 19.6 µM | 7.33 µM | 20.9 µM | 8.03 µM | 20.7 µM | 2.7 µM | 14.4 µM
3 | COc1cc(Nc2nc(N[C@H]3CCCC[C@@H]3N)nc3cc[nH]c(=O)c23)cc(OC)c1 | 2.57 µM | 16.1 µM | 1.38 µM | 19.9 µM | 1.03 µM | 2.27 µM | 3.97 µM | 18.3 µM | 0.391 µM | 3.69 µM | 0.422 µM | 3.11 µM | 1.45 µM | 4.55 µM | 1.11 µM | 14.6 µM | 1.22 µM | 6.06 µM | 6.72 µM | 21.5 µM
4 | O=C1CC[C@@H](S(=O)(=O)c2ccccc2)[C@@H](/C=C/c2ccccc2)O1 |  | > 100 µM |  | > 100 µM |  | > 100 µM |  | > 100 µM |  | > 100 µM |  | > 100 µM |  | > 100 µM |  | > 100 µM |  | > 100 µM |  | > 100 µM
5 | COc1ccc(O)c(C#N)c1C#N |  | > 100 µM |  | > 100 µM |  | > 100 µM |  | > 100 µM |  | > 100 µM |  | > 100 µM |  | > 100 µM |  | > 100 µM |  | > 100 µM |  | > 100 µM
6 | CN(C)CCOc1ccc2c(c1)C/C(=C/c1ncc([N+](=O)[O-])n1C)C2=O |  | 7.74 µM |  | 4.71 µM |  | > 19.6 µM |  | 3.92 µM |  | 4.92 µM |  | 11.6 µM |  | 3.02 µM |  | 14.8 µM |  | 3.49 µM |  | 3.61 µM
7 | Cn1ccnc1C(=O)/C=C/c1ccc(CC(=O)Nc2ccccc2)cc1 | 6.6 µM | > 25 µM | 5.24 µM | 15.6 µM | 1.68 µM | 5.13 µM | 1.25 µM | 8.77 µM | 2.4 µM | 6.82 µM | 3.39 µM | 8.17 µM | 3.2 µM | 6.45 µM | 4.19 µM | 14.7 µM | 4.18 µM | 7.9 µM | 2.77 µM | 5.86 µM
8 | Cc1cc(C(C#N)c2ccc(Cl)cc2)c(Cl)cc1NC(=O)c1cc(I)cc(I)c1O (stereo unspecified) | 13.6 µM and 21.3 µM | 56.3 µM and 44.5 µM | 15.5 µM and 17.2 µM | 46.1 µM and 37.1 µM | 17.7 µM and 14.5 µM | 31.5 µM and 27.6 µM | 5.25 µM and 15.8 µM | 19.8 µM and 31.7 µM | 7.23 µM and 18.6 µM | 22.6 µM and 40.4 µM | 13.7 µM and 15.9 µM | 29.8 µM and 30.5 µM | 3.48 µM and 17.8 µM | 10.5 µM and 47.2 µM | 11 µM and 15.5 µM | 29.2 µM and 32 µM | 3.09 µM and 14.2 µM | 11 µM and 27.3 µM | 14.7 µM and 14.8 µM | 31.4 µM and 35.1 µM
9 | Cc1cccc(C(C)C)c1NC(=O)C(=O)CC(=O)c1c(C)n([O-])c2ccccc2[n+]1=O |  | > 100 µM |  | > 100 µM |  | > 100 µM |  | 62.2 µM |  | > 100 µM |  | > 100 µM |  | 53.9 µM |  | > 100 µM |  | > 100 µM |  | > 100 µM
10 | CCc1cc(O)c(Cl)c(C)c1Cl |  | > 100 µM |  | 31.5 µM |  | 31.5 µM |  | 34.6 µM |  | 39.1 µM |  | 28.5 µM |  | 37.6 µM |  | 52.2 µM |  | 33.3 µM |  | 33.2 µM
11 | CCOC(=O)NN1C(=O)C(=P(c2ccccc2)(c2ccccc2)c2ccccc2)C(C(=O)OCC)=C1C |  | > 100 µM |  | > 100 µM |  | > 100 µM |  | > 100 µM |  | > 100 µM |  | > 100 µM |  | > 100 µM |  | > 100 µM |  | > 100 µM |  | > 100 µM
12 | COC(=O)CNC(=O)[C@@H](OC)[C@@H]1Cc2cc3cc(OC4CC(OC5CC(O)C(O)C(C)O5)C(O)C(C)O4)c(C)c(O)c3c(O)c2C(=O)[C@H]1OC1CC(OC2CC(OC3CC(C)(O)C(O)C(C)O3)C(O)C(C)O2)C(O)C(C)O1 (stereo partly specified) | 0.183 µM | > 50 µM | 0.19 µM | 6.94 µM | 0.0462 µM | 5.38 µM | 1.12 µM | > 50 µM | 0.171 µM | > 50 µM | 0.127 µM | > 50 µM | 0.0921 µM | 0.372 µM | 0.184 µM | > 50 µM | 0.084 µM | 0.538 µM | 0.45 µM | 12.8 µM
13 | COc1c(N2CCN(CN3C(=O)C(=Nc4ccc(S(=O)(=O)Nc5ncccn5)cc4)c4ccccc43)C(C)C2)c(F)cc2c(=O)c(C(=O)O)cn(C3CC3)c12 (stereo unspecified) | > 50 µM | > 50 µM | > 50 µM | > 50 µM | 18.2 µM | > 50 µM | 20.7 µM | > 50 µM | 22.3 µM | > 50 µM | 40.8 µM | > 50 µM | > 50 µM | > 50 µM | > 50 µM | > 50 µM | 20.2 µM | > 50 µM | 40.1 µM | > 50 µM
14 | CCCCCCCCCCCCCCCCCCCCCC(=O)Nc1ccn(C2OC(CO)C(O)C2O)c(=O)n1 (stereo unspecified) |  | > 100 µM |  | > 82.6 µM |  | > 100 µM |  | > 100 µM |  | > 100 µM |  | > 100 µM |  | > 100 µM |  | > 100 µM |  | > 100 µM |  | > 100 µM
15 | COc1cc(-c2cn(-c3ccc(Cl)cc3)c(C)c2C(=O)C(F)(F)F)cc(OC)c1OC | 17.9 µM | > 100 µM | > 100 µM | > 100 µM | 7.03 µM | > 100 µM | > 100 µM | > 100 µM | 73.2 µM | > 100 µM | > 100 µM | > 100 µM | 37 µM | > 100 µM | > 100 µM | > 100 µM | 7.18 µM | > 100 µM | 19.2 µM | > 100 µM
16 | CC(C)CC1=[N+]=C(NC#N)N=C(CCC(=O)Nc2ccccc2[N+](=O)[O-])C1 |  | > 100 µM |  | > 100 µM |  | > 100 µM |  | > 100 µM |  | > 100 µM |  | > 100 µM |  | > 100 µM |  | > 100 µM |  | > 100 µM |  | > 100 µM
17 | COc1cc[nH]c1/C=C1\C(=O)Nc2ccc(F)c(I)c21 | > 25 µM | > 25 µM | > 25 µM | > 25 µM | > 25 µM | > 25 µM | > 25 µM | > 25 µM | > 25 µM | > 25 µM | 1.25 µM | > 25 µM | > 25 µM | > 25 µM | > 25 µM | > 25 µM | > 25 µM | > 25 µM | > 25 µM | > 25 µM
18 | COc1ccc2c3c(c(=O)n(C)c2c1OC)C=CC(C)(C)O3 |  | > 100 µM |  | 27.5 µM |  | > 100 µM |  | 27.9 µM |  | 72.7 µM |  | 77 µM |  | > 100 µM |  | > 100 µM |  | 30.1 µM |  | 63.3 µM
19 | COc1cc(CNc2ccc(C(C)C)cc2)cc(OC)c1OC |  | 34.2 µM |  | 60.1 µM |  | 23.6 µM |  | 31.2 µM |  | 33.3 µM |  | 34.9 µM | 11.1 µM | 24 µM |  | 69.9 µM |  | 27.9 µM |  | 45.3 µM
20 | CN(C)C(=S)N=Nc1c(O)[nH]c2ccccc12 | 0.465 µM | 18.8 µM | 0.526 µM | 11.4 µM | 0.303 µM | 3 µM | 0.455 µM | 23.4 µM | 0.558 µM | 17 µM | 0.496 µM | 12.9 µM | 0.355 µM | 11 µM | 1.49 µM | 21 µM | 0.626 µM | 12.5 µM | 0.384 µM | 6.03 µM
